The numbers were not newly measured in US20230285276A1, “Implantable Medical Device for the Delivery of Aromatase Inhibitor” (Celanese EVA Performance Polymers LLC, priority 2022, published 2023), which cites them from elsewhere.

The test system of one series is circulating estrogen. The following applies: postmenopausal women.
The subject of series [1] is adrenal biosynthesis of corticosteroids or aldosterone. The following applies: in vivo.

In the case of `C=C1C[C@@H]2[C@H](CC[C@]3(C)C(=O)CC[C@@H]23)[C@@]2(C)C=CC(=O)C=C12` [Exemestane, 6-methylenandrosta-1,4-diene-3,17-dione], in the series with circulating estrogen, the circulating estrogen concentration result is recorded as “lowers”. Further, the “effect on adrenal biosynthesis of corticosteroids or aldosterone” value in series [1] was “no detectable effect”. For the same molecule, the “solubility in N, N-dimethylformamide” value (N, N-dimethylformamide, descriptive term) is given as “freely soluble”. Further, the solubility in methanol entry (methanol, descriptive term) is listed as “soluble”. In addition, the “solubility in water (descriptive term)” value (water) was “practically insoluble”.
